These results are taken from ChEMBL document CHEMBL1201862, “PubChem BioAssay data set” (2004).

Test in all cases: NCI tumour cell line growth inhibition, 48 h
The subject of assay [1] is SK-MEL-2.
Assay [2] has as its system NCI-H522.
In assay [3] the test system is UO-31.
Assay [4] relates to MOLT-4.
Assay [5] deals with SNB-75.
Assay [6] deals with RPMI-8226.
Assay [7] deals with SK-MEL-28.
The subject of assay [8] is SNB-19.
The test system of assay [9] is HCT-116.
The test system of assay [10] is HL-60.
Assay [11] deals with SR.
The test system of assay [12] is NCI-H226.
For assay [13], the system named is SW-620.
Assay [14] concerns T47D.
The test system of assay [15] is CAKI-1.
Assay [16] deals with NCI/ADR-RES.
For assay [17], the system named is HOP-62.
Assay [18] concerns HCC 2998.
Assay [19] deals with NCI-H460.

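Interpolation was linear, between the two tested concentrations surrounding the appropriate level; five concentrations were tested over 48 hours in 96-well plates. Abbreviation: GI50, concentration required for 50% inhibition of growth.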 Calls of active or inactive are those of the source. Cut-off read from the data, not from the text of the source: active = GI50 up to about 1.1 µM and inactive = higher.

Turning to `COc1cc(C(c2c(O)c3ccccc3oc2=O)c2c(O)c3ccccc3oc2=O)cc(Br)c1O`, the GI50 in assay [1] was 23.8 µM (inactive); in assay [2], 12.9 µM (inactive); in assay [3], 16.4 µM (inactive); in assay [4], 20.1 µM (inactive); in [5], 18.8 µM (inactive); in assay [6] it was 19.8 µM (inactive). Besides, the GI50 in [7] is 21.6 µM (inactive); in assay [8], 18.6 µM (inactive); in [9] it was 17.5 µM (inactive); in [10], 27.7 µM (inactive); in assay [11] it was 14 µM (inactive); in assay [12] it was 21.5 µM (inactive). The GI50 in assay [13] is 20.6 µM (inactive); in assay [14] it was 22.8 µM (inactive); in assay [15], 15.7 µM (inactive); in assay [16] it was 23 µM (inactive); in [17], 18.6 µM (inactive).

For the molecule `COc1cc(/C=C2/SC(c3ccccc3)N(c3ccccc3Cl)C2=O)cc(OC)c1OC` (stereo not given), the GI50 in [1] was 33.9 µM (inactive); in assay [2], 14.9 µM (inactive); in assay [3], 35.4 µM (inactive); in [4], 28.6 µM (inactive); in assay [6], 21.7 µM (inactive); in [7] it was 30.5 µM (inactive). The GI50 in assay [8] is 28.2 µM (inactive); in assay [9], 23.7 µM (inactive); in assay [18], 88.1 µM (inactive); in [10], 16.5 µM (inactive); in [11] it was 23.8 µM (inactive); in [12], 30.1 µM (inactive). The GI50 was 37.8 µM (inactive) in [13]; 43.7 µM (inactive) in [19]; 29.2 µM (inactive) in assay [14]; 55.7 µM (inactive) in assay [15]; 25.9 µM (inactive) in assay [16]; 33.6 µM (inactive) in [17].

For `COC1C=COC2(C)Oc3c(C)c(O)c4c(O)c(c(C5SCCS5)c(O)c4c3C2=O)NC(=O)/C(C)=C\C=CC(C)C(O)C(C)C(O)C(C)C(OC(C)=O)C1C` (stereo not given), the GI50 in assay [1] was 6.43 µM (inactive); in assay [2] it was 4.75 µM (inactive); in [3], 12.1 µM (inactive); in [4], 2.32 µM (inactive); in assay [5] it was 7.53 µM (inactive); in assay [6], 2.71 µM (inactive). Besides, the GI50 in assay [7] is 6.56 µM (inactive); in assay [8], 4.88 µM (inactive); in [9], 5.02 µM (inactive); in assay [10], 4.02 µM (inactive); in [11], 3.15 µM (inactive); in [12], 9.04 µM (inactive). Also, the GI50 is 5.42 µM (inactive) in [13]; 4.26 µM (inactive) in [19]; 3.1 µM (inactive) in [14]; 9.91 µM (inactive) in assay [15]; 15.5 µM (inactive) in [16]; 10.9 µM (inactive) in assay [17].

Regarding `C[N+](C)([O-])Cc1cccc(NC(=O)c2ccc(C(=O)Nc3cccc(C[N+](C)(C)[O-])c3)cc2)c1`, the GI50 in assay [1], in [2], in [3], in [4], in assay [6] and in assay [7] was > 100 µM (inactive) each time. In addition, the GI50 in assay [8], in assay [9], in assay [18], in assay [10], in assay [11] and in assay [12] was > 100 µM (inactive) in each case. Besides, the GI50 in assay [13], in assay [19], in [14], in assay [15], in assay [16] and in assay [17] was > 100 µM (inactive) throughout.

As to `O=C1/C(=C/c2ccc(Cl)cc2)CSC/C1=C\c1ccc(Cl)cc1`, the GI50 in [1] was 14.5 µM (inactive); in assay [2], 4.99 µM (inactive); in assay [3], 1.92 µM (inactive); in [4], 2.61 µM (inactive); in [6], 0.798 µM (active); in assay [7], 1.87 µM (inactive). The GI50 in [8] is 4.84 µM (inactive); in assay [9] it was 1.76 µM (inactive); in [18] it was 2.07 µM (inactive); in assay [10] it was 1.34 µM (inactive); in assay [11] it was 2.69 µM (inactive); in [12], 2.2 µM (inactive). The GI50 in assay [13] was 3.15 µM (inactive); in [19], 3.32 µM (inactive); in assay [14], 6.89 µM (inactive); in [15], 4.06 µM (inactive); in assay [16], 6.27 µM (inactive); in [17], 4.74 µM (inactive).

For the molecule `COc1cc2c(cc1O)NC(=O)[C@@H]1CCCN1C2=O`, the GI50 in [1], in [2], in [3], in [4], in assay [5] and in assay [6] was > 100 µM (inactive) throughout. Moreover, the GI50 in [7], in assay [8], in assay [9], in assay [18], in assay [11] and in assay [12] was > 100 µM (inactive) throughout. In addition, the GI50 in assay [13], in [19], in assay [14], in assay [15], in assay [16] and in [17] was > 100 µM (inactive) throughout.

Take `COc1cc(C)c(S(=O)(=O)N(CCCN)OCCCN)c(C)c1C`: the GI50 in assay [1] is 22.2 µM (inactive); in assay [2], 22 µM (inactive); in assay [3], 41.5 µM (inactive); in [4] it was 13 µM (inactive); in assay [5], 34.2 µM (inactive); in assay [6] it was 17.5 µM (inactive). Further, the GI50 in [7] was 38.9 µM (inactive); in [8] it was 42 µM (inactive); in [9], 29.6 µM (inactive); in assay [18], 16.6 µM (inactive); in assay [11], 17.6 µM (inactive); in [12], > 100 µM (inactive). Besides, the GI50 was 46.1 µM (inactive) in [13]; 47.1 µM (inactive) in assay [19]; 29.8 µM (inactive) in assay [14]; > 100 µM (inactive) in [15]; > 100 µM (inactive) in [16]; 61.7 µM (inactive) in assay [17].

With `CNC(=O)C1(C#N)C(c2ccccc2)C(C#N)(C(=O)NC)C1c1ccccc1` (stereo not given), the GI50 in assay [1] was > 100 µM (inactive); in [2], > 100 µM (inactive); in assay [3], > 100 µM (inactive); in [4] it was > 100 µM (inactive); in [5], > 100 µM (inactive); in assay [6], 87.1 µM (inactive). Further, the GI50 in assay [7] was > 100 µM (inactive); in assay [8] it was 27.4 µM (inactive); in assay [9], > 100 µM (inactive); in [18], > 100 µM (inactive); in assay [11] it was > 100 µM (inactive); in assay [12] it was 98.9 µM (inactive). Moreover, the GI50 in assay [13], in assay [19], in [14], in [15], in [16] and in assay [17] was > 100 µM (inactive) in each case.

Take `O=C1/C(=C/c2cccc(Br)c2)CSC/C1=C\c1cccc(Br)c1`: the GI50 in [1] was 3.08 µM (inactive); in [2], 1.87 µM (inactive); in [3] it was 2.04 µM (inactive); in [4], 1.87 µM (inactive); in assay [6], 0.537 µM (active); in assay [7], 2.65 µM (inactive). Also, the GI50 in assay [8] is 2.88 µM (inactive); in assay [9] it was 1.78 µM (inactive); in assay [18] it was 1.78 µM (inactive); in [10], 1.92 µM (inactive); in assay [11], 2 µM (inactive); in [12], 3.72 µM (inactive). Moreover, the GI50 was 2.73 µM (inactive) in assay [13]; 2.57 µM (inactive) in assay [19]; 4.89 µM (inactive) in assay [14]; 2.47 µM (inactive) in assay [15]; 2.34 µM (inactive) in assay [16]; 2.72 µM (inactive) in assay [17].

As to `CN(C)C1C(CO)OC(n2cnc3c(N)ncnc32)C1O` (stereo not given), the GI50 in assay [1], in assay [2], in assay [3], in assay [4], in [5] and in assay [6] was > 100 µM (inactive) in each case. The GI50 in [7], in [8], in assay [9], in assay [10], in assay [11] and in assay [12] was > 100 µM (inactive) throughout. The GI50 in [13], in [19], in assay [14], in assay [15], in assay [16] and in assay [17] was > 100 µM (inactive) in each case.

In the case of `CCCC(CCN)(CCN)[N+](=O)[O-]`, the GI50 was > 100 µM (inactive) in assay [1]; > 100 µM (inactive) in assay [2]; > 100 µM (inactive) in assay [3]; > 100 µM (inactive) in assay [4]; 11.2 µM (inactive) in assay [5]; > 100 µM (inactive) in assay [6]. Also, the GI50 in [8], in assay [9], in assay [10], in assay [11], in assay [12] and in [13] was > 100 µM (inactive) each time. The GI50 in assay [19], in assay [14], in [15] and in assay [16] was > 100 µM (inactive) each time.
